pEC50: −log10 of the molar value. Converted amounts (≈) assume the structure as drawn. Read-outs that look alike come from different tables or passages of the source. Marks after values point to notes of the source that are not given here.
How the values were obtained:
P. falciparum CAM3.1 = assay: Multidrug-resistant parasite viability assay (SYBR green), CAM3.1; type: cell-based; conditions: Plasmodium falciparum, 72 h, read-out: multidrug resistant P. falciparum strains EC50 (SD) CAM3.1
Description: (§1) These assays were performed as previously described.[16] P. falciparum 3D7 parasites and resistant lines Dd2, W2mef, 7G8, and artemisinin‐resistant Cambodian isolate (Cam3.I (2539T)), and P. knowlesi YH1, were cultured in human O^+ erythrocytes (RBCs) (Australian Red Cross Blood Service), in RPMI‐HEPES culture medium (pH 7.4, 50 μg/mL hypoxanthine, 25 mM NaHCO3, 20 μg/mL gentamicin, 0.5 % Albumax II (GibcoBRL)) (Thermo Fisher Scientific) and maintained in an atmosphere of 1 % O2, 4 % CO2 and 95 % N2. Parasites were synchronised with 5 % (w/v) sorbitol (Sigma‐Aldrich) treatments for ring stages. Growth assays for measuring drug inhibition of in‐cycle, ring to schizont stage parasites have been described previously. Parasites were grown in 1 % haematocrit, at 1 % and 2 % parasitaemia for P. falciparum and P. knowlesi respectively. […] Parasitaemia was measured using a SYBR DNA staining assay on a fluorometer.[33] After the incubation period, supernatants were removed and well contents were resuspended in PBS.

[1] = system: P. falciparum Dd2 parental strain; assay: PfATP4 drug resistant parasite viability assay (LDH), Dd2 parental; type: cell-based; conditions: Plasmodium falciparum, DD2, 72 h, read-out: Dd2^parental EC50 (SD)
Description: (§2) These assays were performed according to a previously described protocol.[16] Briefly, P. falciparum Dd2 strains treated with compound were incubated for 72 h at 37 °C. After incubating for 72 h, plates were frozen at −80 °C and then thawed at room temperature for at least 2 h. LDH activity, a surrogate for parasite growth was measured by the addition of the Malstst reagent mix, followed by incubation for 30 min and absorbance read using a ClarioStar Microplate reader at 650 nm. Values were normalized to DMSO control as a percentage and EC50 and dose response curves generated using GraphPad Prism.

[2] = Human HepG2 cytotoxicity assay (Cell Titre Glo); type: cell-based; conditions: HepG2 cells, growth inhibition at 48 h, 4 replicate experiments, read-out: HepG2 CC50 (SD)
Excerpt: This assay uses Cell TitreGlo as a metabolic maker for human HepG2 cell growth and uses a protocol previously described.[32]

[3] = Aqueous solubility (pH 7.4); type: physicochemical
Excerpt: (§3) Human liver microsome stability, rat hepatocyte stability, aqueous solubility and eLogD are platform assays conducted by TCG Lifesciences and undertaken using previously described protocols.[10]

[4] = system: P. falciparum Dd2 PfATP4^D425E strain; assay: 'compound 49' resistant parasite viability assay (LDH), Dd2 D425E; type: cell-based; conditions: Plasmodium falciparum, DD2, 72 h, read-out: Dd2^D425E EC50 (SD)
Description: as §2

P. falciparum 7G8 = assay: Multidrug-resistant parasite viability assay (SYBR green), 7G8; type: cell-based; conditions: Plasmodium falciparum, 7G8, 72 h, read-out: multidrug resistant P. falciparum strains EC50 (SD) 7G8
Description: as §1

[5] = system: P. falciparum NF54 male gametes; assay: Dual gamete formation assay, male; type: cell-based; conditions: Plasmodium falciparum; NF54 stage V gametocytes, 48 h incubation; exflagellation 20 min after induction
Description: PfATP4 inhibitors are known to block the transmission of parasites from humans to mosquitoes by interfering with both gametocytes and gamete development.[29] We evaluated a subset of truncated analogues against male and female gametes using a previously described assay. In this assay, stage V gametocytes are treated with compounds and then xanthurenic acid is added and a drop in temperature is used to simulate the mosquito gut environment to induce gametogenesis. After 30 min of compound treatment, male gamete viability is determined by microscopy measuring exflagellation, and after 24 h of compound treatment, female viability is measured using a female gamete specific αPfs25 antibody.
The compounds were evaluated as previously described.[34] Briefly, mature P. falciparum NF54 stage V gametocytes were exposed to compounds for 48 h at 37 °C in 384 well plates in gametocyte culture medium (RPMI 1640 supplemented with 25 mM HEPES, 50 μg mL^−1 hypoxanthine, 4.8 g L^−1 NaHCO3, 2 mM L‐glutamine, 5 % pooled type AB serum, 0.5 % Albumax II (Gibco)) under a 1 % O2/ 3 % CO2/ 96 % N2 environment. Gametogenesis was then triggered by the addition of 10 μL ookinete medium (gametocyte culture medium supplemented with 100 μM xanthurenic acid and 0.27 μg mL^−1 Cy3‐labelled anti‐Pfs25 antibody) to each well at room temperature. Plates were then cooled on a metal block at 4 °C for four min to ensure even cooling and then stabilised for a further 4 min at 28 °C. At 20 min post‐induction, male gametogenesis was recorded in each well by automated brightfield microscopy using a x4 objective lens and 1.5x magnifier (x6 effective magnification). Afterward, plates were incubated in the dark at room temperature for 24 h and then female gametogenesis was recorded in each well by automated fluorescence microscopy (anti‐Pfs25‐positive cells). […] All data was evaluated in comparison to the positive and negative controls to calculate percentage inhibition of male and female gametocytes, and dose response analysis and EC50 calculation were performed using GraphPad Prism.

[6] = Human liver microsome stability; type: in vitro ADME; conditions: human liver microsomes; read-out: HLM CLint
Excerpt: as §3

P. falciparum Dd2 = assay: P. falciparum viability assay (SYBR green), Dd2; type: cell-based; conditions: Plasmodium falciparum, DD2, 72 h, read-out: P. falciparum parental EC50 (SD) Dd2
Description: as §1

[7] = system: P. falciparum Dd2 strain with 2.8-fold amplification in PfATP4; assay: 'compound 49' resistant parasite viability assay (LDH), Dd2 2.8 CNV; type: cell-based; conditions: Plasmodium falciparum, DD2, 72 h, read-out: Dd2^2.8 CNV EC50 (SD)
Description: as §2

P. falciparum W2^mef = assay: Multidrug-resistant parasite viability assay (SYBR green), W2mef; type: cell-based; conditions: Plasmodium falciparum, W2, 72 h, read-out: multidrug resistant P. falciparum strains EC50 (SD) W2^mef
Description: as §1

Rat hepatocyte stability = type: in vitro ADME; conditions: rat hepatocytes; read-out: Rat Hep CLint
Excerpt: as §3

eLogD shake-flask method = type: physicochemical
Excerpt: as §3

[8] = system: P. falciparum 3D7 parasites; assay: P. falciparum viability assay (SYBR green), 3D7; type: cell-based; conditions: Plasmodium falciparum, read-out: P. falciparum parental EC50 (SD) 3D7
Description: These assays were performed as previously described.[16] […] Parasites were synchronised with 5 % (w/v) sorbitol (Sigma‐Aldrich) treatments for ring stages. […] Parasites were grown in 1 % haematocrit, at 1 % and 2 % parasitaemia for P. falciparum and P. knowlesi respectively. […] Parasitaemia was measured using a SYBR DNA staining assay on a fluorometer.[33] After the incubation period, supernatants were removed and well contents were resuspended in PBS.

[9] = aqueous medium at pH 7.4, pH 7.4, aqueous buffer

SMILES	pEC50 (P. falciparum CAM3.1)	pEC50 [1]	CC50 at 48 h [2] [nM]	solubility ([3]; aqueous medium (pH 7.4; buffer not named), pH 7.4, aqueous buffer) [µM]	solubility ([3]; aqueous medium at pH 7.4 (buffer not named), pH 7.4, aqueous buffer) [µM]	pEC50 [4]	pEC50 (P. falciparum 7G8)	pEC50 [5]	microsomal CLint [6] [µL/min/mg]	pEC50 (P. falciparum Dd2)	pEC50 [7]	pEC50 (P. falciparum W2^mef)	hepatocyte CLint (Rat hepatocyte stability) [µL/min/1e6 cells]	eLogD (eLogD shake-flask method)	pEC50 ([8]; 3D7, SYBR green, 72 h)	solubility [3, 9] [µM]	pEC50 ([8]; 3D7, 72 h)
CN1C(=O)c2ccc(Cl)cc2NC1(C)C(=O)Nc1cncc(Cl)c1 (stereo not shown) [Compound 14, 7‐Chloro‐N‐(5‐chloro‐3‐pyridyl)‐2,3‐dimethyl‐4‐oxo‐1H‐quinazoline‐2‐carboxamide]	7.68	7.30	> 40000	5.2 (≈ 1.9 µg/mL)	< 5.2	7.26	7.37	6.89	60	7.72	7.21	7.77	25	3.2^[d]	7.80		
COc1cc(F)c2c(c1)NC(C)(C(=O)Nc1cncc(Cl)c1)N(C)C2=O (stereo not shown) [Compound 36, N‐(5‐Chloropyridin‐3‐yl)‐5‐fluoro‐7‐methoxy‐2,3‐dimethyl‐4‐oxo‐1,2,3,4‐tetrahydroquinazoline‐2‐carboxamide]	7.85	7.49	> 40000			7.37	7.51	6.96	34	7.89	7.25	8.00	8	2.6^[d]	8.00	4 (≈ 1.52 µg/mL)	
CN1C(=O)c2ccc(-n3cccn3)cc2NC1(C)C(=O)Nc1cncc(Cl)c1 (stereo not shown) [Compound 33, N‐(5‐Chloropyridin‐3‐yl)‐2,3‐dimethyl‐4‐oxo‐7‐(1H‐pyrazol‐1‐yl)‐1,2,3,4‐tetrahydroquinazoline‐2‐carboxamide]	7.22	7.14	> 40000			6.90	7.00	6.34	37	7.34	6.91	7.41	14	3.2^[d]		2.6 (≈ 1.03 µg/mL)	7.35

— paper PMC11648822, “Lactam Truncation Yields a Dihydroquinazolinone Scaffold with Potent Antimalarial Activity that Targets PfATP4” (Chemmedchem, 2024)
